According to patent US20200369626A1 (Washington University, priority 2019, published 2020):
Like-named read-outs stand apart in the source and are kept apart here.

Experiments:
[1] = target: T1, S1PR2 (Homo sapiens, UniProt O95136); assay: competitive [^32P]S1P binding assay on cell membranes, S1PR2
T1 construct: purchased

[2] = target: T2, S1PR1 (Homo sapiens, UniProt P21453); assay: competitive [^32P]S1P binding assay on cell membranes, S1PR1
T2 construct: purchased
Description: (§1) The test compounds were dissolved in DMSO and diluted into test samples with increasing concentrations with assay buffer. Commercial cell membranes expressing recombinant human S1PR were diluted with assay buffer to make a 20-40 μg/mL of solution. […] The plate was incubated for 60 min at room temperature with shaking and terminated by collecting the membranes onto 96-well glass fiber (GF/B) filtration plates (Millipore, Billerica, Mass.). Each filter was washed with 200 μL of assay buffer for a total of five washes. The filter bound radionuclide was measured by a Beckman LS 3801 scintillation counter using Cherenkov counting. The IC50 values were fitted from GraphPad Prism 6 using one site Nonlinear Regression.

[3] = target: T3, S1PR3 (Homo sapiens, UniProt Q99500); assay: competitive [^32P]S1P binding assay on cell membranes, S1PR3
T3 construct: purchased
T3 sequence (Q99500 whole entry): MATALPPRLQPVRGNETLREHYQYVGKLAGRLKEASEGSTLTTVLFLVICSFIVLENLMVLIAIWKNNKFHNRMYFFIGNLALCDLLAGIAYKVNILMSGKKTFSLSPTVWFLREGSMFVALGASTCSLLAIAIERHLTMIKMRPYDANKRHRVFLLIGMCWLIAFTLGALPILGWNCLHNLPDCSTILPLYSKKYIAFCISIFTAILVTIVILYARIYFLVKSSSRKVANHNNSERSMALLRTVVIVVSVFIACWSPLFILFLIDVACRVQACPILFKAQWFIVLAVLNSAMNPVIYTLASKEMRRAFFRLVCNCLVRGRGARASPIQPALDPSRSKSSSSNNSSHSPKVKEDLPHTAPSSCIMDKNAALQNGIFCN
Description: as §1

[4] = target: T4, S1PR4 (Homo sapiens, UniProt O95977); assay: competitive [^32P]S1P binding assay on cell membranes, S1PR4
T4 construct: purchased
T4 sequence (O95977 1-384): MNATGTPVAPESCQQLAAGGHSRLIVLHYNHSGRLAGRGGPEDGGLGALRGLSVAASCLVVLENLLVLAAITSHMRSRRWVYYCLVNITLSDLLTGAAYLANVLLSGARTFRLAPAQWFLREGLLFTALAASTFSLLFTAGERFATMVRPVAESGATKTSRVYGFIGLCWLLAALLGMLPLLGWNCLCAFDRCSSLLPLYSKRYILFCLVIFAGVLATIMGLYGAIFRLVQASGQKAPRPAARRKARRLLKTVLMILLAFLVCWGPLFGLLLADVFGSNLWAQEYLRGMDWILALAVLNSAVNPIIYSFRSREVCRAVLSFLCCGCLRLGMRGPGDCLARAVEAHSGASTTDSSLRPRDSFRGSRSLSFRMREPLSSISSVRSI
Description: as §1

[5] = target: T5, S1PR5 (Homo sapiens, UniProt Q9H228); assay: competitive [^32P]S1P binding assay on cell membranes, S1PR5
T5 construct: purchased
T5 sequence (Q9H228 whole entry): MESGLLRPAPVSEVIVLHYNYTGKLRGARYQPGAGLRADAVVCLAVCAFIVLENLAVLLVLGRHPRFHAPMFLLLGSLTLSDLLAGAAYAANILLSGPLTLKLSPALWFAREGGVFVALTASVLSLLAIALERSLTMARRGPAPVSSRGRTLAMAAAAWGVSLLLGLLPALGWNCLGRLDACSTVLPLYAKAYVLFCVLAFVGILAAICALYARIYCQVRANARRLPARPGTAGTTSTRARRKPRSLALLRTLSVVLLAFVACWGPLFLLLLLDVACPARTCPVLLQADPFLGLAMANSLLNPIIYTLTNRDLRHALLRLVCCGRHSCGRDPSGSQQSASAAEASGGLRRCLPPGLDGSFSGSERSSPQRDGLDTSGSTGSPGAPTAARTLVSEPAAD

[6] = [^32P]S1P competition, read-out: IC50 value, S1PR2 binding

T1 sequence (O95136 whole entry): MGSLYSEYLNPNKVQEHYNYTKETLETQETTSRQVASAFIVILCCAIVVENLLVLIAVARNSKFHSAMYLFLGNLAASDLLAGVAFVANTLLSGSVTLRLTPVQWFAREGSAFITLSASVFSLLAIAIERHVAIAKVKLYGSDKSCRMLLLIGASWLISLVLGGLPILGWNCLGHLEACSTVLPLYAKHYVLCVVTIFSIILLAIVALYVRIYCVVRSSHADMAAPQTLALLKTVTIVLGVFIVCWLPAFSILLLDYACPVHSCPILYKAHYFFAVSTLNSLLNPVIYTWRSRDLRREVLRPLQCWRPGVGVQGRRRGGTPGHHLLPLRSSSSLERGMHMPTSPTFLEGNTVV
T2 sequence (P21453 whole entry): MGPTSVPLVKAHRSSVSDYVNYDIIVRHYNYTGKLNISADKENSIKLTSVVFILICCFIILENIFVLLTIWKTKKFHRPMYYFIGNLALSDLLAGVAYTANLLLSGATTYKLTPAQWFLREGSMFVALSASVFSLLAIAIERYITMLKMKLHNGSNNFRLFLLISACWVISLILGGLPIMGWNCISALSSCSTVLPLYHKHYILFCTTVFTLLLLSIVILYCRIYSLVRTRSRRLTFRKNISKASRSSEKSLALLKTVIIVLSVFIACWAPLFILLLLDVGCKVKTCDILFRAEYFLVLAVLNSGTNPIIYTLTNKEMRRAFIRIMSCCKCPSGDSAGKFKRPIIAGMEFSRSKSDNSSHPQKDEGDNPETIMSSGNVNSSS

| Structure (SMILES) | melting point | IC50 ([1]; Table 5, read-out: IC50 S1PR2) | IC50 ([2]; Table 5) | IC50 ([3]; Table 5) | also measured |
| --- | --- | --- | --- | --- | --- |
| CCC(CC)CC1(O)CCN(C(=O)Nc2cc(Oc3ccc(F)cc3)cc(C(F)(F)F)c2)CC1 [Compound 17c, 4-(2-Ethylbutyl)-N-(3-(4-fluorophenoxy)-5-(trifluoromethyl)phenyl)-4-hydroxypiperidine-1-carboxamide] | 108 to 111 °C |  |  |  | IC50 ([1]; [^32P]S1P competition, IC50 ± SD, second Table 1, read-out: S2PR2 IC50): 362 nM |
| CCC(CC)CC1(O)CCN(C(=O)Nc2cc(Oc3ccc(F)cc3)cc(Oc3ccc(OC)cc3)c2)CC1 [Compound 28a, 4-(2-Ethylbutyl)-N-(3-(4-fluorophenoxy)-5-(4-methoxyphenoxy)phenyl)-4-hydroxypiperidine-1-carboxamide] | 79 to 80 °C |  |  |  | IC50 [1, 6]: 188 nM |
| CCC(CC)CC1(O)CCN(C(=O)Nc2cc(Oc3ccc(F)cc3)cc(Oc3ccc4c(c3)CCN(C)C4=O)c2)CC1 [Compound 28b, 4-(2-Ethylbutyl)-N-(3-(4-fluorophenoxy)-5-((2-methyl-1-oxo-1,2,3,4-tetrahydroisoquinolin-6-yl)oxy)phenyl)-4-hydroxypiperidine-1-carboxamide] | 80 to 82 °C |  |  |  | IC50 [2]: > 1000 nM; IC50 [3]: > 1000 nM; IC50 [4]: > 1000 nM; IC50 [5]: > 1000 nM |
| CCC(CC)CC1(O)CCN(C(=O)Nc2cc(Oc3ccc(F)cc3)cc(Oc3ccc4c(c3)CCNC4=O)c2)CC1 [Compound 28c, 4-(2-Ethylbutyl)-N-(3-(4-fluorophenoxy)-5-((1-oxo-1,2,3,4-tetrahydroisoquinolin-6-yl)oxy)phenyl)-4-hydroxypiperidine-1-carboxamide] | 81 to 83 °C |  |  |  | IC50 [2]: > 1000 nM; IC50 [3]: > 1000 nM; IC50 [4]: > 1000 nM; IC50 [5]: > 1000 nM |
| CCC(CC)CC1(O)CCN(C(=O)Nc2cc(Oc3ccc(F)cc3)cc(Oc3ccc(C(=O)NCCF)cc3)c2)CC1 [Compound 28d, 4-(2-Ethylbutyl)-N-(3-(4-((2-fluoroethyl)carbamoyl)phenoxy)-5-(4-fluorophenoxy)phenyl)-4-hydroxypiperidine-1-carboxamide] | 79 to 82 °C |  |  |  | IC50 ([1]; [^32P]S1P competition, Table 2, read-out: IC50 S1PR2): 66.7 ± 7.8 nM; IC50 [2]: > 1000 nM; IC50 [3]: > 1000 nM; IC50 [4]: > 1000 nM; IC50 [5]: > 1000 nM |
| CCC(CC)CC1(O)CCN(C(=O)Nc2cc(Oc3ccc(F)cc3)cc(Sc3ccc(S(C)(=O)=O)cc3)c2)CC1 [Compound 28e, 4-(2-Ethylbutyl)-N-(3-(4-fluorophenoxy)-5-((4-(methylsulfonyl)phenyl)thio)phenyl)-4-hydroxypiperidine-1-carboxamide] | 78 to 80 °C |  |  |  | IC50 [1, 6]: 14.6 nM; IC50 [2]: > 1000 nM; IC50 [3]: > 1000 nM; IC50 [4]: > 1000 nM; IC50 [5]: > 1000 nM |
| CC(C)CC1(O)CCN(C(=O)Nc2cc(Oc3ccc(F)cc3)cc(Oc3ccc(C(=O)NCCF)cc3)c2)CC1 [Compound 28f, N-(3-(4-((2-fluoroethyl)carbamoyl)phenoxy)-5-(4-fluorophenoxy)phenyl)-4-hydroxy-4-isobutylpiperidine-1-carboxamide] | 81 to 83 °C |  |  |  |  |
| Cc1nn(C)c2nc(NNC(=O)Nc3cc(Cl)nc(Cl)c3)cc(C(C)C)c12 [JTE-013, reference compound] |  |  |  |  | IC50 ([2]; [^32P]S1P competition, Table 2): > 1000 nM; IC50 ([3]; [^32P]S1P competition, Table 2): > 1000 nM; IC50 ([4]; [^32P]S1P competition, Table 2): > 1000 nM; IC50 ([5]; [^32P]S1P competition, Table 2): > 1000 nM |
| CNC(=O)c1ccc(Oc2cc(NC(=O)N3CCC(O)(CC(C)C)CC3)cc(C(F)(F)F)c2)cc1 [TZ51-024] |  | 284 ± 27 nM | > 1000 nM | > 1000 nM |  |
| CC(C)CC1(O)CCN(C(=O)Nc2cc(Oc3ccc(F)cc3)cc(C(F)(F)F)c2)CC1 [TZ51-032] |  | 165 ± 35 nM | > 1000 nM | > 1000 nM |  |
| CCC(CC)CC1(O)CCN(C(=O)Nc2cc(Oc3ccc(S(C)(=O)=O)cc3)cc(C(F)(F)F)c2)CC1 [TZ51-033] |  | 296 ± 32 nM | > 1000 nM | > 1000 nM |  |
| CC(C)CC1(O)CCN(C(=O)Nc2cc(Oc3ccc(S(C)(=O)=O)cc3)cc(C(F)(F)F)c2)CC1 [TZ51-035] |  | 270 ± 72 nM | > 1000 nM | > 1000 nM |  |
| CCC(CC)CC1(O)CCN(C(=O)Nc2cc(Oc3ccc(F)cc3)cc(Oc3ccc(C(=O)NCCF)cc3)c2)CC1 [TZ57-028] |  |  | > 1000 nM | > 1000 nM |  |
| CC(C)CC1(O)CCN(C(=O)Nc2cc(Oc3ccc(F)cc3)cc(Oc3ccc(C(=O)NCCF)cc3)c2)CC1 [TZ57-029] |  | 195 ± 36 nM | > 1000 nM | > 1000 nM |  |
| CC(C)CC1(O)CCN(C(=O)Nc2cc(Oc3ccc(F)cc3)cc(Sc3ccc(S(C)(=O)=O)cc3)c2)CC1 [TZ57-031] |  |  | > 1000 nM | > 1000 nM |  |
| CCC(CC)CC1(O)CCN(C(=O)Nc2cc(Oc3ccc(F)cc3)cc(Sc3ccc(S(C)(=O)=O)cc3)c2)CC1 [TZ57-032] |  |  | > 1000 nM | > 1000 nM |  |
| CC(C)CC1(O)CCN(C(=O)Nc2cc(Oc3ccc(OCCF)cc3)cc(Oc3ccc(S(C)(=O)=O)cc3)c2)CC1 [TZ57-033] |  | 525 ± 119 nM | > 1000 nM | > 1000 nM |  |
| CCC(CC)CC1(O)CCN(C(=O)Nc2cc(Oc3ccc(OCCF)cc3)cc(Oc3ccc(S(C)(=O)=O)cc3)c2)CC1 [TZ57-034] |  | 418 ± 118 nM | > 1000 nM | > 1000 nM |  |
| CCC(CC)CC1(O)CCN(C(=O)Nc2cc(Oc3ccc(F)cc3)cc(Oc3ccc4c(c3)CCN(C)C4=O)c2)CC1 [TZ57-089] |  | 73 ± 11 nM | > 1000 nM | > 1000 nM |  |
| CCC(CC)CC1(O)CCN(C(=O)Nc2cc(Oc3ccc(F)cc3)cc(Oc3ccc4c(c3)CCNC4=O)c2)CC1 [TZ57-090] |  | 30 ± 4 nM | > 1000 nM | > 1000 nM |  |
